Experimental data reported in patent publication US8053585B2, “Protecting group for carboxylic acids that can be photolyzed by visible light” (Cornell Research Foundation, Inc., priority 2006, dated 2011).

Legend:
Format in all cases: cell-based
[1] = system: GluR6 glutamate receptor; test: Whole-cell current recording with cell-flow method, HEK 293 cells expressing GluR6
Excerpt: (§1) In whole-cell current recording experiments with DECM-caged glutamate, HEK 293 cells stably transfected with cDNA encoding the GluR6 were used. In whole-cell current recording experiments with DECM-caged glycine, HEK 293 cells were transiently transfected with the cDNA of the α1-subunit of the human glycine receptor by using the Polyfect™ transfection reagent (Qiagen GmbH, D-40724, Hilden, Germany). The cDNA of the α1-subunit was kindly provided by Professor H. Betz (Max-Plank-Institute for brain Research, Frankfurt, Germany). The cells were co-transfected with cDNA encoding the green fluorescent protein (pGreen Lantern plasmid, Life Technologies, Gaitherberg, Md.) to detect transfected cells (Chalfie et al., “Green Fluorescent Protein as a Marker for Gene Expression,” Science 263:802-805 (1994), which is hereby incorporated by reference in its entirety).
The cells were used for electrophysiological experiments between 24 and 72 h after each passage. Whole-cell currents evoked by glutamate or glycine (100 μM) were recorded using the whole-cell configuration (Hamill et al., “Improved Patch-Clamp Techniques for High-Resolution Current Recording From Cells and Cell-Free Membrane Patches,” Pfluegers Arch 391:85-100 (1981), which is hereby incorporated by reference in its entirety) at room temperature, −60 mV, and pH 7.4. The experiments using DECM-caged glutamate were carried out in the absence or presence of 2 mM DECM-caged glutamate (FIG. 5A) or 1 mM 7-N,N-diethylamino-4-hydroxymethylcoumarin (2) (FIG. 5B). Alternatively, the experiments using DECM-caged glycine were carried out in the absence or presence of 1 mM DECM-caged-glycine (FIG. 10). The solution in the recording pipet contained 120 mM CsCl, 10 mM EGTA, and 10 mM HEPES, adjusted to pH 7.4. The HEK cell bath solution contained 150 mM NaCl, 1 mM CaCl2, 10 mM HEPES, pH 7.4. The resistance of the recording electrode filled with buffer solution was typically 3-5 MΩ and the series resistance was 5-6 MΩ. The cells were held at a constant transmembrane voltage of −60 mV and room temperature (22° C.). […]

[2] = target: T1, α1-subunit of the human glycine receptor (Homo sapiens, UniProt P23415); test: Flash lamp photolysis of DECM-caged glycine on HEK 293 cells; conditions: 1 mM caged compound
T1 construct: expressed in transfected cells; host or cells: HEK 293 cells, transiently transfected (Polyfect), co-transfected with GFP plasmid as marker; cDNA from Prof; H. Betz
T1 sequence (P23415 29-457): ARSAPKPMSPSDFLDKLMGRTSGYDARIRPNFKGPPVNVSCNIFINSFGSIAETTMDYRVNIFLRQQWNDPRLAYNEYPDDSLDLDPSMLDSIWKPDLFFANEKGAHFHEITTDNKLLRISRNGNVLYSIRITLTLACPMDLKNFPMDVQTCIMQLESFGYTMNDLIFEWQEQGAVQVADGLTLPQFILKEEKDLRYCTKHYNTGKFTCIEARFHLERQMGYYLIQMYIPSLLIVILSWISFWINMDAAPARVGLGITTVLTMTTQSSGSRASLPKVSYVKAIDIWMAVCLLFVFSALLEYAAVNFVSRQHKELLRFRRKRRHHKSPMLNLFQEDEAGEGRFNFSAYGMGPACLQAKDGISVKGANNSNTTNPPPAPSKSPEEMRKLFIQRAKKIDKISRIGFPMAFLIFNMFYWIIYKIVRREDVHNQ
Protocol: The cells were used for electrophysiological experiments between 24 and 72 h after each passage. Whole-cell currents evoked by glutamate or glycine (100 μM) were recorded using the whole-cell configuration (Hamill et al., “Improved Patch-Clamp Techniques for High-Resolution Current Recording From Cells and Cell-Free Membrane Patches,” Pfluegers Arch 391:85-100 (1981), which is hereby incorporated by reference in its entirety) at room temperature, −60 mV, and pH 7.4. The experiments using DECM-caged glutamate were carried out in the absence or presence of 2 mM DECM-caged glutamate (FIG. 5A) or 1 mM 7-N,N-diethylamino-4-hydroxymethylcoumarin (2) (FIG. 5B). Alternatively, the experiments using DECM-caged glycine were carried out in the absence or presence of 1 mM DECM-caged-glycine (FIG. 10). The solution in the recording pipet contained 120 mM CsCl, 10 mM EGTA, and 10 mM HEPES, adjusted to pH 7.4. The HEK cell bath solution contained 150 mM NaCl, 1 mM CaCl2, 10 mM HEPES, pH 7.4. The resistance of the recording electrode filled with buffer solution was typically 3-5 MΩ and the series resistance was 5-6 MΩ. The cells were held at a constant transmembrane voltage of −60 mV and room temperature (22° C.). Whole-cell currents were amplified by using an Axopatch 200B (Axon Instruments, Foster City, Calif.) amplifier and filtered at 1-5 kHz by using a […], low-pass, Bessel (Dagan Corporation, Minneapolis, Minn.) filter incorporated in the amplifier. The filtered signal was digitized by a Digidata 1322A (Axon Instruments, Union City, Calif.) or a Labmaster DMA 100 KHz digitizing board (Scientific Solutions, Mentor, Ohio) controlled by pCLAMP9 software (Axon Instruments).
The light produced by the Rapp (Rapp OptoElectronics, Hamburg, Germany) xenon flash lamp (SP-20) was coupled into an optical fiber (600 μm internal diameter), which delivered the light to the cell. The concentration of DECM-caged-glycine used was 1 mM for the results in FIG. 11. Typical light energies were 150-250 μJ per pulse. […] Data were analyzed with Microcal Origin3.5 software (Microcal, Northampton, Mass.).

[3] = target: T2, α1-subunit human glycine receptor (Homo sapiens, UniProt P23415); test: Stability in aqueous solution by whole-cell current recording, cells used as glycine detector; conditions: 1 mM solution, 20 hours in the dark, pH 7.4
T2 construct: expressed in transfected cells; host or cells: HEK 293 cells, transiently transfected (Polyfect), co-transfected with GFP plasmid as marker; cDNA from Prof; H. Betz
T2 sequence (P23415 29-457): T1 sequence (P23415 29-457)
Excerpt: as §1
The cells were used for electrophysiological experiments between 24 and 72 h after each passage. Whole-cell currents evoked by glutamate or glycine (100 μM) were recorded using the whole-cell configuration (Hamill et al., “Improved Patch-Clamp Techniques for High-Resolution Current Recording From Cells and Cell-Free Membrane Patches,” Pfluegers Arch 391:85-100 (1981), which is hereby incorporated by reference in its entirety) at room temperature, −60 mV, and pH 7.4. […]

Row | Compound | whole-cell current evoked by 100 μM glutamate, presence vs absence of compound ([1]; 2 mM DECM-caged glutamate, −60 mV, pH 7.4, 22° C.) | biological activity at glutamate receptors (inhibition or activation) ([1]; HEK-293 cells expressing glutamate receptors) | concentration of liberated glycine ([2]; flash-lamp light pulse, 250 μJ) [µM] | I∞, current at t=∞ ([2]; −60 mV, pH 7.4, 22° C.) [pA] | kobs, apparent pseudo first-order rate constant of the current rise ([2]; −60 mV, pH 7.4, 22° C.) [s⁻¹] | free glycine in solution of caged compound [3]
1 | CCN(CC)c1ccc2c(COC(=O)CCC(N)C(=O)O)cc(=O)oc2c1 (stereo not drawn) [DECM-caged glutamate, (7-N,N-Diethylaminocoumarin-4-yl)-methyl-glutamate-trifluoroacetate] | do not inhibit | biologically inert | – | – | – | –
2 | CCN(CC)c1ccc2c(COC(=O)CN)cc(=O)oc2c1 [DECM-caged glycine, (7-N,N-Diethylaminocoumarin-4-yl)-methyl-glycine-trifluoroacetate] | – | – | 60 | −4950±57 | 125 ± 16 | no free glycine was detected
